According to US6805870B1 (priority 1994, dated 2004):
Where two headings read alike, the source gives them in different places.

Test system: VSV
Type: in vivo, mouse

For c1ccc([C@H]2CN3CCSC3=N2)cc1 [levamisole], the “efficacy index (mean of at least 2 tests)” value (from here on “efficacy index”) (mouse, in vivo) was 0, the “efficacy index” value (preparation dilution 1:4) was “toxic” and the “efficacy index” value (preparation dilution 1:8) was 0. The “efficacy index” value (preparation dilution 1:32) was 0, the “efficacy index” value (preparation dilution 1:64) was 0 and the “efficacy index” value (preparation dilution 1:128) was 0.
